Measurements taken from patent US20200354426A1 (MEDIMMUNE LIMITED, priority 2016, published 2020).
Where two headings read alike, the source gives them in different places. Numbered stars: 1 amine (or outer) side, 2 acyl side, 3 side chain; on linkers, the order of the positions; unused ones are H or OH. Side chains are listed from the residue outwards. Peptide text beside a SMILES is read from it. * marks the point of attachment. γGlu = O=C(O)[C@H](CCC(=O)[*:2])N[*:1]; Palmitoyl = CCCCCCCCCCCCCCCC(=O)*; Ahx = NCCCCCC(=O)O

Legend:
Test in all cases: cAMP activity assay in assay medium (assay 1)
Format in all cases: cell-based
Details in all cases: assay medium
Human GIPr = molecular target: T1, Human GIPr (Homo sapiens, UniProt P48546)
T1 construct: expressed in transfected cells
T1 sequence (P48546 22-466): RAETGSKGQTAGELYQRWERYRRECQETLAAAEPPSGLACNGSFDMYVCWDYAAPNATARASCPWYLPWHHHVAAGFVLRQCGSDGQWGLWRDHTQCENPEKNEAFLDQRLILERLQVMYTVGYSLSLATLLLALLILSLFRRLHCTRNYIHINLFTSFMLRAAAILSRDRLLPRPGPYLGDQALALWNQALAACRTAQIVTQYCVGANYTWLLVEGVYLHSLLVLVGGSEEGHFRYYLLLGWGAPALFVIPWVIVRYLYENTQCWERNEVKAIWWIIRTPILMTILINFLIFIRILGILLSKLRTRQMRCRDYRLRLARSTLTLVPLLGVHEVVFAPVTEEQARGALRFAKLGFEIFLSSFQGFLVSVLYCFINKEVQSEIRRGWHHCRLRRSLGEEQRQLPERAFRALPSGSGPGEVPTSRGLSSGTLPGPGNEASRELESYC
From the text: (§1) Biological Activity of Peptides in Cell-Based cAMP Activity Assay (Assay 1):
(§2) All sample dilutions were made in duplicate.

Human GlucR = molecular target: T2, Human GlucR (Homo sapiens, UniProt P47871)
T2 construct: expressed in transfected cells
T2 sequence (P47871 26-477): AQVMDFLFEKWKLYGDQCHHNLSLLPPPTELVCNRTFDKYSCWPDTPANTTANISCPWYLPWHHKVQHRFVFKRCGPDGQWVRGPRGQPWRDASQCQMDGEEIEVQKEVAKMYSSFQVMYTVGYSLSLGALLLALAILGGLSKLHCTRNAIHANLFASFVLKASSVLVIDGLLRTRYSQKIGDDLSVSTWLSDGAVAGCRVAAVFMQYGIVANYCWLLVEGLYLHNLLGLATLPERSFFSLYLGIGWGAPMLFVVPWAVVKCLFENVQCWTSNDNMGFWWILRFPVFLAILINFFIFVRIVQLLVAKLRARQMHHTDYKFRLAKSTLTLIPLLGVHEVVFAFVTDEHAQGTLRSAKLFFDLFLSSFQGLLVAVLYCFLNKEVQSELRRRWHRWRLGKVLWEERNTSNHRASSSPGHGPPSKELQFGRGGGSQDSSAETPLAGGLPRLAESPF
From the text: as §1, §2

Human GLP1R = Human GLP1R (Homo sapiens, UniProt P43220); set-up: expressed in transfected cells
Sequence of Human GLP1R (P43220 24-463): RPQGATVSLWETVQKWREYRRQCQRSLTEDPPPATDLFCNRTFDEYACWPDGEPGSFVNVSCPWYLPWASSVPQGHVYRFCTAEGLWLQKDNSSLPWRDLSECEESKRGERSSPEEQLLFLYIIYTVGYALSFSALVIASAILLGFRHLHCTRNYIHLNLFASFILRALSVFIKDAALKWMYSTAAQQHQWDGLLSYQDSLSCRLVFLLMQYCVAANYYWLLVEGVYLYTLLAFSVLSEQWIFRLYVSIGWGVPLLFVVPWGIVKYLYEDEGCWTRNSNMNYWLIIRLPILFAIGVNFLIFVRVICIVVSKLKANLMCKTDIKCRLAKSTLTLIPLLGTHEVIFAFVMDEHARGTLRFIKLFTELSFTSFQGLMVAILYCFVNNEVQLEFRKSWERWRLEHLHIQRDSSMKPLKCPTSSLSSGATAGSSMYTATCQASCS
From the text: as §1, §2

SMILES | EC50 (Human GIPr; Table 4, read-out: hGIPR EC50) | EC50 (Human GlucR; Table 4, read-out: hGlucR EC50) | EC50 (Human GLP1R; Table 4, read-out: hGLP1R EC50) | EC50 (Human GIPr; Table 3, C-terminal acid peptides, read-out: Human GIPr EC50) | EC50 (Human GlucR; Table 3, C-terminal acid peptides, read-out: Human GlucR EC50) | EC50 (Human GLP1R; Table 3, C-terminal acid peptides, read-out: Human GLP1R EC50)
CCCCCCCCCCCCCCCC(=O)N[C@@H](CCC(=O)NCCCC[C@H](NC(=O)[C@H](Cc1ccc(O)cc1)NC(=O)[C@H](CC(=O)O)NC(=O)[C@H](CO)NC(=O)[C@@H](NC(=O)[C@H](Cc1ccccc1)NC(=O)[C@@H](NC(=O)CNC(=O)[C@H](CCC(N)=O)NC(=O)[C@H](CO)NC(=O)[C@@H](N)Cc1c[nH]cn1)[C@@H](C)O)[C@@H](C)O)C(=O)N[C@@H](CCCCN)C(=O)N[C@@H](Cc1ccc(O)cc1)C(=O)N[C@@H](CC(C)C)C(=O)N[C@@H](CC(=O)O)C(=O)N[C@@H](CO)C(=O)N[C@@H](CCCNC(=N)N)C(=O)N[C@@H](CCCNC(=N)N)C(=O)N[C@@H](C)C(=O)N[C@@H](CCC(N)=O)C(=O)N[C@@H](CC(=O)O)C(=O)N[C@@H](Cc1ccccc1)C(=O)N[C@H](C(=O)N[C@@H](CCC(N)=O)C(=O)N[C@@H](Cc1c[nH]c2ccccc12)C(=O)N[C@@H](CC(C)C)C(=O)N[C@H](C(=O)N[C@@H](C)C(=O)NCC(=O)NCC(N)=O)C(C)C)C(C)C)C(=O)O [g716] (H-HSQGTFTSDYK([γGlu-Palmitoyl])KYLDSRRAQDFVQWLVAGG-NH2; N-terminus assumed) | 11.8 nM | 2.46 nM | 12.9 nM |  |  | 
CCCCCCCCCCCCCCCC(=O)N[C@@H](CCC(=O)NCCCC[C@H](NC(=O)[C@H](CC(=O)O)NC(=O)[C@H](CO)NC(=O)[C@@H](NC(=O)[C@H](Cc1ccccc1)NC(=O)[C@@H](NC(=O)CNC(=O)[C@H](CCC(N)=O)NC(=O)[C@H](CO)NC(=O)[C@@H](N)Cc1c[nH]cn1)[C@@H](C)O)[C@@H](C)O)C(=O)N[C@@H](CO)C(=O)N[C@@H](CCCCN)C(=O)N[C@@H](Cc1ccc(O)cc1)C(=O)N[C@@H](CC(C)C)C(=O)N[C@@H](CCC(=O)O)C(=O)NCC(=O)N[C@@H](CCC(N)=O)C(=O)N[C@@H](C)C(=O)N[C@@H](C)C(=O)N[C@@H](CCCCN)C(=O)N[C@@H](CCC(=O)O)C(=O)N[C@@H](Cc1ccccc1)C(=O)N[C@H](C(=O)N[C@@H](C)C(=O)N[C@@H](Cc1c[nH]c2ccccc12)C(=O)N[C@@H](CC(C)C)C(=O)N[C@@H](CCC(=O)O)C(=O)N[C@@H](CCCCN)C(=O)NCC(=O)N[C@@H](CCCNC(=N)N)C(=O)O)[C@@H](C)CC)C(=O)O [Peptide G934] |  |  |  | 3.6 nM | 0.0063 nM | 0.018 nM
CCCCCCCCCCCCCCCC(=O)N[C@@H](CCC(=O)NCCCC[C@H](NC(=O)[C@H](Cc1ccc(O)cc1)NC(=O)[C@H](CCC(=O)O)NC(=O)[C@H](CO)NC(=O)[C@H](Cc1ccc(O)cc1)NC(=O)[C@H](CC(=O)O)NC(=O)[C@H](CO)NC(=O)[C@@H](NC(=O)[C@H](Cc1ccccc1)NC(=O)[C@@H](NC(=O)CNC(=O)[C@H](CCC(N)=O)NC(=O)[C@H](CO)NC(=O)[C@@H](N)Cc1c[nH]cn1)[C@@H](C)O)[C@@H](C)O)C(=O)N[C@@H](CC(=O)O)C(=O)N[C@@H](CO)C(=O)N[C@@H](CCCNC(=N)N)C(=O)N[C@@H](CCCNC(=N)N)C(=O)N[C@@H](C)C(=O)N[C@@H](CCCNC(=N)N)C(=O)N[C@@H](CC(=O)O)C(=O)N[C@@H](Cc1ccccc1)C(=O)N[C@H](C(=O)N[C@@H](CCC(=O)O)C(=O)N[C@@H](Cc1c[nH]c2ccccc12)C(=O)N[C@@H](CC(C)C)C(=O)N[C@@H](CCC(=O)O)C(=O)N[C@@H](C)C(=O)NCC(=O)NCC(N)=O)C(C)C)C(=O)O [g876] (H-HSQGTFTSDYSEYK([γGlu-Palmitoyl])DSRRARDFVEWLEAGG-NH2; N-terminus assumed) | 79 nM | 0.0104 nM | 0.0863 nM |  |  | 
CCCCCCCCCCCCCCCC(=O)N[C@@H](CCC(=O)NCCCC[C@H](NC(=O)[C@H](Cc1ccc(O)cc1)NC(=O)[C@H](CCCCN)NC(=O)[C@H](CO)NC(=O)[C@H](Cc1ccc(O)cc1)NC(=O)[C@H](CC(=O)O)NC(=O)[C@H](CO)NC(=O)[C@@H](NC(=O)[C@H](Cc1ccccc1)NC(=O)[C@@H](NC(=O)CNC(=O)[C@H](CCC(N)=O)NC(=O)[C@H](CO)NC(=O)[C@@H](N)Cc1c[nH]cn1)[C@@H](C)O)[C@@H](C)O)C(=O)N[C@@H](CC(=O)O)C(=O)N[C@@H](CO)C(=O)N[C@@H](CCC(=O)O)C(=O)N[C@@H](CCCNC(=N)N)C(=O)N[C@@H](C)C(=O)N[C@@H](CCCNC(=N)N)C(=O)N[C@@H](CC(=O)O)C(=O)N[C@@H](Cc1ccccc1)C(=O)N[C@H](C(=O)N[C@@H](C)C(=O)N[C@@H](Cc1c[nH]c2ccccc12)C(=O)N[C@@H](CC(C)C)C(=O)N[C@H](C(=O)N[C@@H](C)C(=O)NCC(=O)NCC(N)=O)C(C)C)C(C)C)C(=O)O [g777] (H-HSQGTFTSDYSKYK([γGlu-Palmitoyl])DSERARDFVAWLVAGG-NH2; N-terminus assumed) | 4.53 nM | 0.00124 nM | 0.0274 nM |  |  | 
CCCCCCCCCCCCCCCC(=O)N[C@@H](CCC(=O)NCCCC[C@H](NC(=O)[C@H](Cc1ccc(O)cc1)NC(=O)[C@H](CCCCN)NC(=O)[C@H](CO)NC(=O)[C@H](Cc1ccc(O)cc1)NC(=O)[C@H](CC(=O)O)NC(=O)[C@H](CO)NC(=O)[C@@H](NC(=O)[C@H](Cc1ccccc1)NC(=O)[C@@H](NC(=O)CNC(=O)[C@H](CCC(N)=O)NC(=O)[C@H](CO)NC(=O)[C@@H](N)Cc1c[nH]cn1)[C@@H](C)O)[C@@H](C)O)C(=O)N[C@@H](CC(=O)O)C(=O)N[C@@H](CO)C(=O)N[C@@H](CCCNC(=N)N)C(=O)N[C@@H](CCCNC(=N)N)C(=O)N[C@@H](C)C(=O)N[C@@H](CCCNC(=N)N)C(=O)N[C@@H](CC(=O)O)C(=O)N[C@@H](Cc1ccccc1)C(=O)N[C@H](C(=O)N[C@@H](CCC(=O)O)C(=O)N[C@@H](Cc1c[nH]c2ccccc12)C(=O)N[C@@H](CC(C)C)C(=O)N[C@@H](CCC(=O)O)C(=O)N[C@@H](C)C(=O)NCC(=O)NCC(N)=O)C(C)C)C(=O)O [g805] (H-HSQGTFTSDYSKYK([γGlu-Palmitoyl])DSRRARDFVEWLEAGG-NH2; N-terminus assumed) | 99.7 nM | 0.00144 nM | 0.0228 nM |  |  | 
CCCCCCCCCCCCCCCC(=O)N[C@@H](CCC(=O)NCCCC[C@H](NC(=O)[C@H](CO)NC(=O)[C@H](CC(=O)O)NC(=O)[C@H](CC(C)C)NC(=O)[C@H](Cc1ccc(O)cc1)NC(=O)[C@H](CCCCN)NC(=O)[C@H](CO)NC(=O)[C@H](Cc1ccc(O)cc1)NC(=O)[C@H](CC(=O)O)NC(=O)[C@H](CO)NC(=O)[C@@H](NC(=O)[C@H](Cc1ccccc1)NC(=O)[C@@H](NC(=O)CNC(=O)[C@H](CCC(N)=O)NC(=O)CNC(=O)[C@@H](N)Cc1c[nH]cn1)[C@@H](C)O)[C@@H](C)O)C(=O)N[C@@H](CCCNC(=N)N)C(=O)N[C@@H](C)C(=O)N[C@@H](CCC(N)=O)C(=O)N[C@@H](CC(=O)O)C(=O)N[C@@H](Cc1ccccc1)C(=O)N[C@H](C(=O)N[C@@H](CCC(=O)O)C(=O)N[C@@H](Cc1c[nH]c2ccccc12)C(=O)N[C@@H](CC(C)C)C(=O)N[C@H](C(=O)N[C@@H](C)C(=O)NCC(=O)NCC(N)=O)C(C)C)C(C)C)C(=O)O [g679] (H-HGQGTFTSDYSKYLDSK([γGlu-Palmitoyl])RAQDFVEWLVAGG-NH2; N-terminus assumed) | 117 nM | 0.189 nM | 0.135 nM |  |  | 
CCCCCCCCCCCCCCCC(=O)NCCCCCC(=O)NCCCC[C@H](NC(=O)[C@H](CO)NC(=O)[C@H](CC(=O)O)NC(=O)[C@H](CC(C)C)NC(=O)[C@H](Cc1ccc(O)cc1)NC(=O)[C@H](CCC(=O)O)NC(=O)[C@H](CO)NC(=O)[C@H](Cc1ccc(O)cc1)NC(=O)[C@H](CC(=O)O)NC(=O)[C@H](CO)NC(=O)[C@@H](NC(=O)[C@H](Cc1ccccc1)NC(=O)[C@@H](NC(=O)CNC(=O)[C@H](CCC(N)=O)NC(=O)CNC(=O)[C@@H](N)Cc1c[nH]cn1)[C@@H](C)O)[C@@H](C)O)C(=O)N[C@@H](CCCNC(=N)N)C(=O)N[C@@H](C)C(=O)N[C@@H](CCCNC(=N)N)C(=O)N[C@@H](CC(=O)O)C(=O)N[C@@H](Cc1ccccc1)C(=O)N[C@H](C(=O)N[C@@H](C)C(=O)N[C@@H](Cc1c[nH]c2ccccc12)C(=O)N[C@@H](CC(C)C)C(=O)N[C@@H](CCC(=O)O)C(=O)N[C@@H](CCCNC(=N)N)C(=O)NCC(=O)NCC(N)=O)C(C)C [g684] (H-HGQGTFTSDYSEYLDSK([Ahx-Palmitoyl])RARDFVAWLERGG-NH2; N-terminus assumed) | 146 nM | 0.164 nM | 0.0151 nM |  |  | 
CCCCCCCCCCCCCCCC(=O)N[C@@H](CCC(=O)NCCCC[C@H](NC(=O)[C@H](CO)NC(=O)[C@H](CC(=O)O)NC(=O)[C@H](CC(C)C)NC(=O)[C@H](Cc1ccc(O)cc1)NC(=O)[C@H](CCCCN)NC(=O)[C@H](CO)NC(=O)[C@H](Cc1ccc(O)cc1)NC(=O)[C@H](CC(=O)O)NC(=O)[C@H](CO)NC(=O)[C@@H](NC(=O)[C@H](Cc1ccccc1)NC(=O)[C@@H](NC(=O)CNC(=O)[C@H](CCC(N)=O)NC(=O)[C@H](CO)NC(=O)[C@@H](N)Cc1c[nH]cn1)[C@@H](C)O)[C@@H](C)O)C(=O)N[C@@H](CCCNC(=N)N)C(=O)N[C@@H](C)C(=O)N[C@@H](CCCNC(=N)N)C(=O)N[C@@H](CC(=O)O)C(=O)N[C@@H](Cc1ccccc1)C(=O)N[C@H](C(=O)N[C@@H](C)C(=O)N[C@@H](Cc1c[nH]c2ccccc12)C(=O)N[C@@H](CC(C)C)C(=O)N[C@H](C(=O)N[C@@H](C)C(=O)NCC(=O)NCC(N)=O)C(C)C)C(C)C)C(=O)O [g867] (H-HSQGTFTSDYSKYLDSK([γGlu-Palmitoyl])RARDFVAWLVAGG-NH2; N-terminus assumed) | 41.7 nM | 0.00704 nM | 0.0448 nM |  |  | 
